For series [1], the system named is Leishmania amazonensis. Nature of the series: Leishmanicidal activity against Leishmania amazonensis MHOM/BR/71973/M2269 amastigotes infected in mouse peritoneal macrophages assessed as reduction in surviving parasites incubated for 72 hrs by Giemsa staining based optical light microscopy. Type of series: functional, organism-based. As to conditions: MHOM/BR/71973/M2269, 72 h.

Series [2] is described as follows: Inhibition of Leishmania mexicana cysteine protease r-CPB2.8 using Z-FR-AMC fluorogenic substrate by spectrofluorometry.
The nature of series [3]: Selectivity index, ratio of CC50 for mouse peritoneal macrophages to IC50 for Leishmania amazonensis MHOM/BR/71973/M2269 amastigotes infected in mouse peritoneal macrophages. Type of series: functional.
The test system of series [4] is Leishmania amazonensis. The experiment in a line: microbe, parasite or virus in culture. As to conditions: MHOM/BR/71973/M2269, 72 h. Type of series: functional, organism-based.
Description: Leishmanicidal activity against Leishmania amazonensis MHOM/BR/71973/M2269 promastigotes assessed as reduction in surviving parasites incubated for 72 hrs by Neubauer's chamber based cell counting method
A short description of series [5]: Cytotoxicity against mouse peritoneal macrophages assessed as reduction in cell viability incubated for 72 hrs by MTT assay. Type of series: cell-based, Peritoneal macrophage cell.
Series [6] has as its system Salmonella typhimurium. The experiment in a line: Mutagenicity in Salmonella typhimurium TA100 assessed as number of revertants at 5 ug/plate incubated for 90 mins at 37 degC in presence of liver S9 fractions by Ames test relative to untreated control. As to conditions: salmonella enterica subsp. enterica serovar typhimurium, s9, 1.5 h. (The Ames test detects mutagens through reverse mutation in bacteria.)

The subject of series [7] is Salmonella typhimurium. The experiment in a line: Mutagenicity in Salmonella typhimurium TA102 assessed as mutagenicity index at 5 ug/plate incubated for 90 mins at 37 degC in presence of liver S9 fractions by Ames test relative to untreated control. Type of series: toxicity, organism-based. The settings on record: salmonella enterica subsp. enterica serovar typhimurium, s9, 1.5 h.

The subject of series [8] is Salmonella typhimurium. Nature of the series: Mutagenicity in Salmonella typhimurium TA102 assessed as number of revertants at 5 ug/plate incubated for 90 mins at 37 degC in presence of liver S9 fractions by Ames test relative to control. As to conditions: salmonella enterica subsp. enterica serovar typhimurium, s9, 1.5 h.
For series [9], the system named is Salmonella typhimurium. Nature of the series: Mutagenicity in Salmonella typhimurium TA98 assessed as mutagenicity index at 10 ug/plate incubated for 90 mins at 37 degC in absence of liver S9 fractions by Ames test relative to control. As to conditions: salmonella enterica subsp. enterica serovar typhimurium, 1.5 h. Type of series: toxicity, organism-based.
For series [10], the system named is Salmonella typhimurium. The experiment in a line: Mutagenicity in Salmonella typhimurium TA98 assessed as mutagenicity index at 10 ug/plate incubated for 90 mins at 37 degC in absence of liver S9 fractions by Ames test relative to untreated control. Type of series: toxicity, organism-based. As to conditions: salmonella enterica subsp. enterica serovar typhimurium, 1.5 h.

Each structure is given as a SMILES string. pIC50: −log10 of the molar value.

With `OCCCc1cn(CCCCCCCCCCCCI)nn1`, the negative-log IC50 (pIC50) is 4.63 in series [1], 5.91 in series [2] and 4.72 in series [4]. Also, the “Ratio CC50/IC50” value in series [3] is 2.79. Also, the cytotoxic concentration (CC50) at 72 h in [5] stood at 66.2 µM.
Turning to `Nc1ccc2cc3ccccc3cc2c1` [2-AMINOANTHRACENE], the results for the Revertants in series [6], in [7] and in [8] were 1020 revertants/plate, 2510 revertants/plate and 2510 revertants/plate, respectively.
`N=C(N)c1ccc(OCCCCCOc2ccc(C(=N)N)cc2)cc1` [PENTAMIDINE]: in [1], the negative logarithm of the IC50 (pIC50) was 5.18. The “Ratio CC50/IC50” value in series [3] amounted to 1.69.
Consider `CS(=O)(=O)OCCCCCCCCCCCCn1cc(CCCOS(C)(=O)=O)nn1`, for which the pIC50 is 4.15 in series [1], 5.34 in [2] and 5.40 in [4]. For the same molecule, in series [3], the “Ratio CC50/IC50” value was found to be 2.14. In series [5], the 50% cytotoxic concentration (CC50) at 72 h was 156 µM.
As for `CS(=O)(=O)OCCCCCCCCCCCCn1cc(CCC(=O)O)nn1`, the pIC50 in series [4] was 3.65.
Same read-out and setting: as for `CCOC(=O)c1cn(CCCCCCOS(C)(=O)=O)nn1`, the figure is 3.66.
Regarding `CC(=O)OCCCc1cn(CCCCCCCCCCCCOS(C)(=O)=O)nn1`, the pIC50 is 4.25 in [1], 5.99 in series [2] and 4.52 in [4]. The 50% cytotoxic concentration (CC50) at 72 h in series [5] was 26.6 µM.
Molecule `OCCCc1cn(CCCCCCCCCI)nn1` had a pIC50 in [4] of 4.17.
On the same count and under the same terms, as for `CS(=O)(=O)OCCCCCCn1cc(CCCO)nn1`, the figure is 3.64; as for `OCCCc1cn(CCCCCCCCCF)nn1`, 4.09.
For the molecule `CCOC(=O)c1cn(CCCCCCCCCCCCI)nn1`, the negative logarithm of the IC50 (pIC50) in series [1] was 4.75; in [2], 5.22; in [4], 4.55. In series [3], the “Ratio CC50/IC50” value worked out at 5.28. In addition, in [5], the CC50 at 72 h came to 93.4 µM.
On to `CS(=O)(=O)OCCCCCCCCCn1cc(CCCO)nn1`, for which the negative-log IC50 (pIC50) in series [4] was 4.08.
The molecule `CCOC(=O)c1cn(CCCCCCCCCCCCOS(C)(=O)=O)nn1` showed a pIC50 in [4] of 4.12.
Turning to `CC(C)C[C@H](NC(=O)[C@H]1O[C@@H]1C(=O)O)C(=O)NCCCCN=C(N)N` [E-64], in [2], the pIC50 was 6.90.
In [4], `CS(=O)(=O)OCCCCCCCCCCCCn1cc(CO)nn1` had a pIC50 of 4.29.
As to `Nc1ccc([N+](=O)[O-])cc1N`, the Activity_index in series [9] and in series [10] was 1350 each time.
Turning to `C[C@@H]1[C@H](O)[C@@H](C)/C=C/C=C/C=C/C=C/C=C/C=C/C=C/[C@H](O[C@@H]2O[C@H](C)[C@@H](O)[C@H](N)[C@@H]2O)C[C@@H]2O[C@](O)(C[C@@H](O)C[C@@H](O)[C@H](O)CC[C@@H](O)C[C@@H](O)CC(=O)O[C@H]1C)C[C@H](O)[C@H]2C(=O)O` [AMPHOTERICIN B], the pIC50 in [1] was 5.21; in series [4] it was 5.33. Also, in [3], the “Ratio CC50/IC50” value is 4.44.
`C[N+](C)(C)CCOP(=O)([O-])OCCCCCCCCCN=[N+]=[N-]` had a pIC50 in series [4] of 3.87.
Turning to `OCCCc1cn(CCCCCCCCCCCCF)nn1`, the figures for the pIC50 in series [1], in series [2] and in [4] were 4.82, 5.65 and 4.43, respectively. Besides, the “Ratio CC50/IC50” value in [3] is reported as 9.83. In addition, the cytotoxic concentration (CC50) at 72 h in [5] stood at 163 µM.
In turn, `CCOC(=O)c1cn(CCCCCCCCCI)nn1` had a pIC50 in series [4] of 4.32.
Regarding `C[N+](C)(C)CCOP(=O)([O-])OCCCCCCCCCCCCN=[N+]=[N-]`, the pIC50 is 5.42 in series [1], 5.08 in [2] and 4.59 in [4]. Moreover, in series [3], the “Ratio CC50/IC50” value is 33.76. Further, in series [5], the cytotoxic concentration (CC50) at 72 h came out at 129 µM.

As a reminder, the pIC50 is the negative decadic logarithm of the IC50, by convention in mol/L. The term CC50 denotes the concentration giving 50% cytotoxicity.

The values above are taken from ChEMBL document CHEMBL3611972, “Leishmanicidal, antiproteolytic, and mutagenic evaluation of alkyltriazoles and alkylphosphocholines” (Eur J Med Chem, 2015).
